Results on 14 compounds are retold here after US20250026762A1, “FUSED PYRAZOLE UREA ANALOGS AS GLUCOSYLCERAMIDE SYNTHASE INHIBITORS” (Merck Sharp & Dohme LLC, priority 2021, published 2025).

Sequence of glucosylceramide synthase (GCS) enzyme in Golgi preparations from human A375 malignant melanoma skin cells (Q16739 whole entry): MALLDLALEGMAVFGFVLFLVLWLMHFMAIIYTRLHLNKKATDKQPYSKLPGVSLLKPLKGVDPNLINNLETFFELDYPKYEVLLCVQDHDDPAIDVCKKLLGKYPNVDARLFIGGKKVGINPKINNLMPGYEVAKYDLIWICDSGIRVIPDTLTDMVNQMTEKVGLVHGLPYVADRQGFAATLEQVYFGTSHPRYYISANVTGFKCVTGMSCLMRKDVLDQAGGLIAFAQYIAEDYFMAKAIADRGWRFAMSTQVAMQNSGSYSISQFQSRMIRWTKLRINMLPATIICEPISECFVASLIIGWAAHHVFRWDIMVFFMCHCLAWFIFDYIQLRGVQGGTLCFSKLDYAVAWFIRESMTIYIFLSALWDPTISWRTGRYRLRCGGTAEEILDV

The first assay concerns the target glucosylceramide synthase (GCS) enzyme in Golgi preparations from human A375 malignant melanoma skin cells (Homo sapiens (Human), UniProt Q16739). The assay can be described thus: UDP-Glo glucosylceramide synthase biochemical assay. Particulars: 1.5 μg crude golgi preparation; C6 ceramide and UDP-glucose at 2×Km; 20 h incubation at room temperature; luminescence. The source says:
UDP-Glo™ Glucosylceramide Synthase Biochemical Assay
A UDP-Glo™ glucosylceramide synthase biochemical assay was utilized to evaluate the effect of test compounds on the activity of endogenous levels of GCS enzyme contained within Golgi preparations isolated from human A375 malignant melanoma skin cells. The UDP-Glo™ glucosylceramide synthase assay uses UDP-Glucose as a nucleotide-glycosyl donor and ceramide as substrate acceptor molecules. In the reaction, glucosylceramide synthase (GCS) transfers glucose from UDP-Glucose to ceramide. Glucosylceramide and UDP are released as products.
Using Promega's UDP-Glo™ Glycosyltransferase assay kit (Promega Corporation, Madison, WI, USA (Promega)), GCS activity was indirectly measured by detecting the amount of UDP produced. An aliquot of GCS enzyme (1.5 μg crude golgi preparation, total protein) and titrated test compound were aliquoted to each well and incubated for 30 minutes at room temperature. Substrate mixture was prepared by mixing C6 ceramide (Avanti Polar Lipids, Alabaster, AL USA (Avanti)) (micelles prepared at 0.6 mM in 0.6 mM DOPC) and UDP-glucose (20 μM; Promega), at concentrations equivalent to 2×Km, in assay buffer (25 mM HEPES (pH 7.5), 50 mM KCl, 5 mM MgCl2). An equivalent volume of substrate mixture was then added to each well. Following a 20 h incubation at room temperature to allow for GCS turnover of substrate, an equal volume of UDP detection reagent (Promega) was added to each well and incubated for an additional 75 minutes at room temperature to simultaneously convert the accumulated UDP product into ATP and generate light in a luciferase reaction. The generated light was detected using a luminometer. […] luminescence values (RLUs) were normalized to mean “min” and “max” effects, as determined on each plate. “Min” was defined as the mean of the values of the wells treated with vehicle (DMSO) and which represent 0% inhibition; “max” was defined as the mean of the values of the wells treated with a reference inhibitor and which represent the 100% effect. Values for % Emax and EC50 were determined by best-fitting the normalized data to a curve in Activity Base along a four-parameter logistic nonlinear regression (4PL) model (based on the Levenberg-Marquardt algorithm and defined by the equation below): […]
where: n is 4PMin (bottom of the curve); m is 4PMax (top of the curve); i is IP (inflection point of curve); andp is slope. See Levenberg, K., “A Method for the Solution of Certain Problems in Least Squares”, Quart. Appl. Math. 2, (1944), pp 164-168 and Marquardt, D., “An Algorithm for Least Squares Estimation on Nonlinear Parameters”, SIAM J. Appl. Math. 11, (1963) pp 431-441.
In turn, `O=C(N1CCN2CCC1CC2)n1nc(-c2ccc(F)cc2)c2c1C1CCC2C1` [Compound 14, (R,R) and (S,S)-(1,4-diazabicyclo[3.2.2]nonan-4-yl)(3-(4-fluorophenyl)-4,5,6,7-tetrahydro-1H-4,7-methanoindazol-1-yl)methanone] showed an EC50 of 1.2 nM. This counts as single-digit nanomolar. For the compound `O=C(N1CCN2CCC1CC2)n1nc(-c2ccc(F)cc2)c2c1CCC2` [Compound 12, 1,4-diazabicyclo[3.2.2]nonan-4-yl-[3-(4-fluorophenyl)-5,6-dihydro-4H-cyclopenta[c]pyrazol-1-yl]methanone], a half-maximal effect (EC50) was put at 0.3 nM. Against the preceding compound, the EC50 is about 4-fold lower. Still for that read-out and setting: under `CC1(C)CCCN(c2nn(C(=O)N3CCN4CCC3CC4)c3c2CCC3)C1` [Compound 24, (1,4-diazabicyclo[3.2.2]nonan-4-yl)(3-(3,3-dimethylpiperidin-1-yl)-5,6-dihydrocyclopenta[c]pyrazol-1(4H)-yl)methanone] stands 7.8 nM; under `COc1cnn(-c2nn(C(=O)N3CCN4CCC3CC4)c3c2CCC3)c1` [Compound 58, (1,4-diazabicyclo[3.2.2]nonan-4-yl)(3-(4-methoxy-1H-pyrazol-1-yl)-5,6-dihydrocyclopenta[c]pyrazol-1(4H)-yl)methanone], 10 nM; under `O=C(N1CCN2CCC1CC2)n1nc(-c2ccc(OC(F)F)cc2)c2c1CCC2` [Compound 5, 1,4-diazabicyclo[3.2.2]nonan-4-yl-[3-[4-(difluoromethoxy)phenyl]-5,6-dihydro-4H-cyclopenta[c]pyrazol-1-yl]methanone], 0.3 nM. For the compound `O=C(N1CCN2CCC1CC2)n1nc(-n2cc(C(F)(F)F)cn2)c2c1COCC2` [Compound 53, (1,4-diazabicyclo[3.2.2]nonan-4-yl)(3-(4-(trifluoromethyl)-1H-pyrazol-1-yl)-4,7-dihydropyrano[3,4-c]pyrazol-1(5H)-yl)methanone], the concentration for a half-maximal effect (EC50) turned out to be 4.1 nM. Still for that read-out and setting: next, `O=C(N1CCN2CCC1CC2)n1nc(-c2cc(Cl)c(F)cn2)c2c1COCC2` [Compound 49, (1,4-diazabicyclo[3.2.2]nonan-4-yl)(3-(4-chloro-5-fluoropyridin-2-yl)-4,7-dihydropyrano[3,4-c]pyrazol-1(5H)-yl)methanone]: 8.3 nM; `O=C(N1CCN2CCC1CC2)n1nc(-c2ccc(F)c(F)c2F)c2c1CCOC2` [Compound 42, (1,4-diazabicyclo[3.2.2]nonan-4-yl)(3-(2,3,4-trifluorophenyl)-6,7-dihydropyrano[4,3-c]pyrazol-1(4H)-yl)methanone]: 0.9 nM. Same read-out and setting: under `O=C(N1CCN2CCC1CC2)n1nc(-c2cc(F)c(F)cc2F)c2c1CCOC2` [Compound 45, (1,4-diazabicyclo[3.2.2]nonan-4-yl)(3-(2,4,5-trifluorophenyl)-6,7-dihydropyrano[4,3-c]pyrazol-1(4H)-yl)methanone] stands 2.3 nM; under `O=C(N1CCN2CCC1CC2)n1nc(-n2cc(Cl)cn2)c2c1CCC2` [Compound 56, (1,4-diazabicyclo[3.2.2]nonan-4-yl)(3-(4-chloro-1H-pyrazol-1-yl)-5,6-dihydrocyclopenta[c]pyrazol-1(4H)-yl)methanone], 3 nM. In turn, `COc1ncc(-c2nn(C(=O)N3CCN4CCC3CC4)c3c2C[C@@H]2C[C@H]32)cc1Cl` [Compound 8, (1,4-diazabicyclo[3.2.2]nonan-4-yl)((4aS,5aS)-3-(5-chloro-6-methoxypyridin-3-yl)-4,4a,5,5a-tetrahydro-1H-cyclopropa[4,5]cyclopenta[1,2-c]pyrazol-1-yl)methanone] displayed a 50% effective concentration (EC50) of 0.1 nM. This EC50 is about 30-fold lower than that of the compound before. Same read-out and setting: under `Cc1ccccc1-c1nn(C(=O)N2CCN3CCC2CC3)c2c1CCOC2` [Compound 28, (1,4-diazabicyclo[3.2.2]nonan-4-yl)(3-(o-tolyl)-4,7-dihydropyrano[3,4-c]pyrazol-1(5H)-yl)methanone] stands 6.6 nM; under `O=C(N1CCN2CCC1CC2)n1nc(-c2ccc(C(F)(F)F)cc2)c2c1COCC2` [Compound 30, (1,4-diazabicyclo[3.2.2]nonan-4-yl)(3-(4-(trifluoromethyl)phenyl)-4,7-dihydropyrano[3,4-c]pyrazol-1(5H)-yl)methanone], 2.7 nM.

The subject of another assay is GD and PD patient-derived induced pluripotent stem cell (iPSC) neurons.
Experiment: not given
Particulars: Zunke, F. et al., Neuron 2018; cited from earlier work.
For the compound `CCCCCCCC(=O)N[C@H](CN1CCCC1)[C@H](O)c1ccc2c(c1)OCCO2` [eliglustat, Eliglustat], the “formation of pathological α-synuclein aggregates” value was “reverse the formation of pathological α-synuclein aggregates”.
